Data taken from patent US20210220345A1, “METHODS FOR THE ADMINISTRATION OF COMT INHIBITORS” (Neurocrine Biosciences, Inc., priority 2018, published 2021).

What was measured:
CYP2C8 = target: T1, CYP2C8 (Homo sapiens, UniProt P10632); settings: statement of the European approved drug label; cited from earlier work
T1 sequence (P10632 1-490): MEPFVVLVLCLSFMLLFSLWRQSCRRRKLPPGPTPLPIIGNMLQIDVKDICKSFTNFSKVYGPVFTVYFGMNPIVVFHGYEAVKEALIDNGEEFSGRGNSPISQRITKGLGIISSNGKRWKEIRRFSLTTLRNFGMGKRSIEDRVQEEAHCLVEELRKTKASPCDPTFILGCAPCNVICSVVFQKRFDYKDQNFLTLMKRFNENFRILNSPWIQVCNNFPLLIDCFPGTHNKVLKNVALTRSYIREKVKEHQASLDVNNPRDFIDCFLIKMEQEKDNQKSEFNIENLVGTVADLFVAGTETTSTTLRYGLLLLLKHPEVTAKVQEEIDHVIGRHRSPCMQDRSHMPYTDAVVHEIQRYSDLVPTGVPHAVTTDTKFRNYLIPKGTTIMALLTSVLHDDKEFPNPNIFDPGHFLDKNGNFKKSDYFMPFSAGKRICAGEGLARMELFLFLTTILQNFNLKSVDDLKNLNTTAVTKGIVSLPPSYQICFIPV

[1] = cited from earlier work
clinical = settings: human, in vivo
Procedure: This was a Phase 1, open-label, one-sequence crossover, drug-interaction study to evaluate and compare the PK of repaglinide when administered alone and concomitantly with OPC (micronized). Subjects received a single dose of repaglinide 0.5 mg on Days 1 and 15 at approximately 0800 hours. In addition, subjects received OPC 50 mg once daily on Days 2 through 15 at approximately 0800 hours.
Subjects were required to fast overnight from midnight (2400 hours) until 2 hours postdose on Days 1 through 15. Blood samples for pharmacokinetic analysis of OPC and its metabolites and for repaglinide were collected at scheduled times during the study. Safety and tolerability assessments were conducted at scheduled times during the study.
Blood samples to determine repaglinide plasma concentrations were collected on Days 1 and 15 at approximately 30 minutes prior to repaglinide dosing and at 0.25, 0.5, 0.75, 1, 1.5, 2, 3, 4, 5, 6, 8, 10, 12, and 24 hours post-repaglinide dosing.
PK parameters for OPC and its metabolites and repaglinide were calculated using non-compartmental methods.
A statistical assessment of the drug-drug interaction between repaglinide and opicapone is provided below. A repeated measures linear mixed model with fixed effect for treatment and random effect for subject was utilized. An unstructured variance-covariance matrix was assumed for the mixed model analysis. Geometric means (GM), ratios of geometric means (GMR), and their confidence intervals (CI) are shown on the original scale of measurement. Within-Subject CV was calculated as 100*sqrt[(sA2+sC2−2sAC)/2], where sA2 and sC2 are the estimated variances on the log scale for the two treatments, and sAC is the corresponding estimated covariance.

[2] = non-micronized opicapone 25 mg single dose, repaglinide 0.5 mg

Tmax (clinical)	half-life (clinical)	AUC(0-inf) (clinical; AUC0-inf, GM)	AUC(0-t) (clinical; AUC0-t, GM)	Cmax (clinical; Cmax, GM)	Compound	inhibition of CYP2C8 (CYP2C8)	increase in repaglinide AUC0-tlast when taken with opicapone vs. repaglinide alone [1, 2]	increase in repaglinide Cmax when taken with opicapone vs. repaglinide alone [1, 2]	average increase in the rate of exposure to repaglinide when co-administered with opicapone ([1]; opicapone 25 mg, less than optimal formulation, rate but not extent of exposure increased)
–	–	–	–	–	Cc1c(Cl)c(C)[n+]([O-])c(Cl)c1-c1noc(-c2cc(O)c(O)c([N+](=O)[O-])c2)n1 [opicapone, 5-[3-(2,5-dichloro-4,6-dimethyl-1-oxy-pyridin-3-yl)-[1,2,4]oxadiazol-5-yl]-3-nitrobenzene-1,2-diol]	weak inhibitor	9%	31%	30%
30 min	38.4 min	11.6 ng·h/mL	10.9 ng·h/mL	10.1 ng/mL	CCOc1cc(CC(=O)N[C@@H](CC(C)C)c2ccccc2N2CCCCC2)ccc1C(=O)O [Repaglinide, repaglinide]	–	–	–	–
